# Like-named read-outs stand apart in the source and are kept apart here.
# Legend:
# MAPK4 = MAPK4 (Homo sapiens, UniProt P31152); assay: biochemical; parameters: Eurofins DiscoverX kinase panel, competitive binding assay at 1 uM, percent of DMSO control; details: competitive binding, percent of DMSO control
# How it was run: (§1)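 Single-point profiling at 1 µM compound in a competition-binding format against 96 kinases, read out as POC relative to control; n = 1.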
# MEK5 = biological target: T1, MEK5 (Homo sapiens, UniProt Q13163); assay: biochemical; parameters: Eurofins DiscoverX kinase panel, competitive binding assay at 1 uM, percent of DMSO control; details: competitive binding, percent of DMSO control
# T1 construct: gene MAP2K5
# T1 sequence (Q13163 1-448): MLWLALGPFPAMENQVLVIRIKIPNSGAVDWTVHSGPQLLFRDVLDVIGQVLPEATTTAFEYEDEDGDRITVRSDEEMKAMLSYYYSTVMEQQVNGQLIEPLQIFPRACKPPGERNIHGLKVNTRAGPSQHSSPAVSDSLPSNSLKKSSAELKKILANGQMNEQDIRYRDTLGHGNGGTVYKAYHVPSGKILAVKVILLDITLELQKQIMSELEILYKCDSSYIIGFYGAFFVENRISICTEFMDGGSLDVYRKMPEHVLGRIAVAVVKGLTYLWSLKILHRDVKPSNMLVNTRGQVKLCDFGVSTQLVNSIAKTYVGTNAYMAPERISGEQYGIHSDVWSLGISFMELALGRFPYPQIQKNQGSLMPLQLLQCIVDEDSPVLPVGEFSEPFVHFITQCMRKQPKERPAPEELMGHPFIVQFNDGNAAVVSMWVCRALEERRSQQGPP
# How it was run: as §1
# [1] = read-out: Kinome Profiling performed by Eurofins DiscoverX / AM-1882, 1.0 µM / POC
# [2] = read-out: Kinome Profiling performed by Eurofins DiscoverX / AM-0277, 1.0 µM / POC
# [3] = read-out: Kinome Profiling performed by Eurofins DiscoverX / AM-5308, 1.0 µM / POC
# MAPK4, sequence (P31152 whole entry): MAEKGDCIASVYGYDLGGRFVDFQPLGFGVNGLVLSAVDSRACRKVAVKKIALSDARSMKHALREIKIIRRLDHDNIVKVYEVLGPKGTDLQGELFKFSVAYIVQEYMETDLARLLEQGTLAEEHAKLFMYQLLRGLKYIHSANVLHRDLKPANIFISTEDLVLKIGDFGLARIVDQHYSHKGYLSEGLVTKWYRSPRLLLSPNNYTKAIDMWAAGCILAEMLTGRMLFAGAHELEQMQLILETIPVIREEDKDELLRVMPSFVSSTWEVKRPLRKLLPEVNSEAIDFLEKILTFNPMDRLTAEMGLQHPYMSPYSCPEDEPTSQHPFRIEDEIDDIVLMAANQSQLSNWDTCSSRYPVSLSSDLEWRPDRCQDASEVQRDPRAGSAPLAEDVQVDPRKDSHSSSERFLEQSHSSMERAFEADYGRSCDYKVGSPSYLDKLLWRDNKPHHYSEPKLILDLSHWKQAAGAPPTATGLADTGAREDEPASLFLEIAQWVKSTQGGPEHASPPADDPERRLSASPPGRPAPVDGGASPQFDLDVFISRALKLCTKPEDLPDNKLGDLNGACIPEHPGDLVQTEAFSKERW
smiles,measurement,setting,value
CC(C)(C)NS(=O)(=O)c1cccc(NC(=O)c2ccc(S(=O)(=O)NC(C)(C)C)cc2N2CCC3(CC2)CC3)c1 [AM-1882],remaining activity at 1 µM,MAPK4; [1],99%
same,remaining activity at 1 µM,MEK5; [1],38.5%
CC(C)(CO)Nc1ccc(C(=O)Nc2cccc(S(=O)(=O)C3CCCC3)c2)c(N2CCC3(CC2)CC3)n1 [AM-0277],remaining activity at 1 µM,MAPK4; [2],98%
same,remaining activity at 1 µM,MEK5; [2],86%
C[C@@H]1CN(c2cccc(NC(=O)c3ccc(NS(=O)(=O)CCO)cc3N3CCC4(CC3)CC4)n2)CCO1 [AM-5308],remaining activity at 1 µM,MAPK4; [3],81.5%
same,remaining activity at 1 µM,MEK5; [3],99.5%
